We go through 6 compounds from patent publication US20100087477A1, “SELECTIVE GLYCOSIDASE INHIBITORS” (priority 2006, published 2010).

In assay [1] the target is T1, OGA (Homo sapiens, UniProt O60502).
T1 sequence (O60502 1-916): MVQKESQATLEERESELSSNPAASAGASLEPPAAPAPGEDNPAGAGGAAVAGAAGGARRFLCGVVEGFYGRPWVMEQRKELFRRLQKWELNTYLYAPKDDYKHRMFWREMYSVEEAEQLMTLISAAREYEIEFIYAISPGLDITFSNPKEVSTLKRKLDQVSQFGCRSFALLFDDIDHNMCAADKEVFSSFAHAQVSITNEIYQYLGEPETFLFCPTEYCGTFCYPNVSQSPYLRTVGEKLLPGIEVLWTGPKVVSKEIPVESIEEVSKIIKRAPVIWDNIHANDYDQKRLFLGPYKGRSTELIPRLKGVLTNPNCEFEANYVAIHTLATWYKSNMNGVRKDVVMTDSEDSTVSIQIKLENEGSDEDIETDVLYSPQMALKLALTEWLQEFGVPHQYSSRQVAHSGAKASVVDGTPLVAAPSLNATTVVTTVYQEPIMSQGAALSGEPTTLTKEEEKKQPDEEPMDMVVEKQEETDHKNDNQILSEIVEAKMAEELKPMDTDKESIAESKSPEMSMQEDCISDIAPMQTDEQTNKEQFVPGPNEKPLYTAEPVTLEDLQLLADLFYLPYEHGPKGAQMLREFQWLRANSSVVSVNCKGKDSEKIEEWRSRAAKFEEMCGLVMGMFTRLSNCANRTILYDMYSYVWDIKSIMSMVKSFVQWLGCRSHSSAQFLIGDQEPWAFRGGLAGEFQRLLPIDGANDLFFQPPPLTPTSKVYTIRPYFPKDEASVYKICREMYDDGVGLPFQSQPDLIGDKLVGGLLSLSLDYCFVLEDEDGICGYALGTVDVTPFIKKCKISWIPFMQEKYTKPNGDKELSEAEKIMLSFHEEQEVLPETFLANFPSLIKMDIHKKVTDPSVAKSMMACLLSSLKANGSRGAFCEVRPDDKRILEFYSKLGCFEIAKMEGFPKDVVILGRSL
Conditions: background, literature; cited from earlier work.

The target of assay [2] is bacterial O-GlcNAcase (bOGA) (NagJ from Clostridium perfringens) (Clostridium perfringens, UniProt Q8XL08). As to the kind of experiment: biochemical. More on the design: Ratio a/b: reference not given here.
The target in assay [3] is mixture of the human placental hexosaminidases HexA/HexB. In words: Steady state kinetics of hexosaminidases A and B with 4MU-GlcNAc. It counts as biochemical.
The target in assay [4] is T2, human OGA (hOGA) (Homo sapiens, UniProt O60502).
T2 sequence (O60502 1-916): T1 sequence (O60502 1-916)
As to the kind of experiment: Inhibition of human OGA (hOGA), methodology similar to bOGA. Format: biochemical.

In assay [5] the target is bOGA (Clostridium perfringens, UniProt Q8XL08). It counts as biochemical.
Assay [6] has as its system HEK 293 cells. As to the kind of experiment: Immunoblot: O-GlcNAc levels in treated HEK 293 cells. Format: cell-based, human. Conditions: FIG. 4B. In general terms: A western blot detects proteins with antibodies after separation by electrophoresis.
For assay [7], the system named is human lysosomal hexosaminidases HexA and HexB. Conditions: background, literature; cited from earlier work.
[8] abbreviates: read-out: Ki values (in M) a) hexosaminidases.

Where two headings read alike, the source gives them in different places.

Sequence of bacterial O-GlcNAcase (bOGA) (NagJ from Clostridium perfringens) (Q8XL08 31-1001 limits assumed): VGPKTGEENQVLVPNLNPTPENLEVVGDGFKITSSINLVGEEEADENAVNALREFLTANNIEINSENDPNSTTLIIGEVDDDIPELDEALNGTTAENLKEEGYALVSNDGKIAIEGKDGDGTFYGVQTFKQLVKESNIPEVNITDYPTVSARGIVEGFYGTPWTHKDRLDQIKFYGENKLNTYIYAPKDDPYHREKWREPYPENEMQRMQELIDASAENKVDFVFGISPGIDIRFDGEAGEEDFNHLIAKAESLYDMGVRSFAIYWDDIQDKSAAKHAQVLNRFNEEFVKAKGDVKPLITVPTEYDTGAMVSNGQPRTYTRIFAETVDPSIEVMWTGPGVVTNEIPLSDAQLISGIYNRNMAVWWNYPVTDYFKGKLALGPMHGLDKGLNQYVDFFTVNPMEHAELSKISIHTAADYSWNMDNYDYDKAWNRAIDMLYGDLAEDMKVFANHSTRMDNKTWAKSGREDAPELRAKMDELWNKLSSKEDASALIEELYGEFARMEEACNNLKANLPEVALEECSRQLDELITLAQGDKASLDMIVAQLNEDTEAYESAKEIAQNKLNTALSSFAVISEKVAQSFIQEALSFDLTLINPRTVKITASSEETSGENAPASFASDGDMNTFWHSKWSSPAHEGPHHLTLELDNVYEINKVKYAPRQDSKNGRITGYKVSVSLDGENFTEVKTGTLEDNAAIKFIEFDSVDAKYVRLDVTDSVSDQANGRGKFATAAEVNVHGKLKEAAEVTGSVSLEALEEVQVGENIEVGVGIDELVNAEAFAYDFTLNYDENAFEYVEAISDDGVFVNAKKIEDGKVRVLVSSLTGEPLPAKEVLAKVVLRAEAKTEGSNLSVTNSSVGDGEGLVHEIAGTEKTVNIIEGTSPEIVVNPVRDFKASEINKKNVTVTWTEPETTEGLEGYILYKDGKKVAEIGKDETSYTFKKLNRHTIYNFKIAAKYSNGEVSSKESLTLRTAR
Sequence of bOGA (Q8XL08 31-1001 limits assumed): as above

On to `CC(=O)NC1c2nc(C(=O)Nc3ccccc3)cn2C(CO)[C@@H](O)C1O` (stereo partly drawn) [A], for which, in assay [1], the “inhibition of OGA (in words)” value is “only acts at the micromolar level”.

A word on the Ki: it is the dissociation constant of the complex between target and ligand, obtained from inhibition or displacement. For `CC(=O)NC1c2nc(CCc3ccccc3)cn2C(CO)[C@@H](O)[C@@H]1O` (stereo partly drawn) [Compound III], in assay [2], the inhibitory constant (Ki) amounted to 0.0078 nM and the Ratio a/b worked out at 256. The Ki in assay [3] (setting [8]) was 2 nM.

Broadly, the IC50 is the concentration at which inhibition is half-maximal. Consider `CC(C)C(=O)NC1c2nc(CCc3ccccc3)cn2C(CO)[C@@H](O)C1O` (stereo partly drawn) [Compound II], for which the Ki stood at 0.0046 ± 0.0002 nM in assay [2]; 500 nM in assay [3] (HexA/HexB mixture, read-out: Ki values (in M) a) hexosaminidases); 520 ± 70 nM in assay [3] (placental hexosaminidases, 0-400 nM inhibitor, FIG. 3, read-out: Ki). In addition, in assay [2], the Ratio a/b was determined as 108000. In addition, the “inhibition of hOGA (in words)” value is listed as “active against human OGA” in assay [4] and “more potent inhibitor than PUGNac” in assay [4] (listed as GlcNacstain). For the same compound, in assay [4] (hOGA, FIG. 5), the IC50 worked out at 8 nM. The “activity in inhibiting bOGA from removing O-GlcNAc from proteins” value in assay [5] is “more active than PUGNAc”. Further, the “raising O-GlcNAc levels” value in assay [6] is “more efficient at raising O-GlcNAc levels than PUGNAc”.

Take `CCC(=O)NC1c2nc(CCc3ccccc3)cn2C(CO)[C@@H](O)[C@@H]1O` (stereo partly drawn) [Compound IV]: the Ki worked out at 0.011 nM in assay [2] and 4.8 nM in assay [3] (setting [8]). Further, the Ratio a/b in assay [2] was 440.

With `CC(=O)N[C@H]1/C(=N/OC(=O)Nc2ccccc2)O[C@H](CO)[C@@H](O)[C@@H]1O` [PUGNAc, O-(2-acetamido-2-deoxy-D-glucopyrano-sylidene)amino-N-phenylcarbamate], the “inhibition of OGA (in words)” value in assay [1] is “nanomolar inhibitor”. In addition, the “inhibition of HexA and HexB (in words)” value in assay [7] is given as “potent inhibitor”.

For the compound `COC(=O)Cc1cn2c(n1)C(NC(C)=O)[C@@H](O)[C@H](O)C2CO` (stereo partly drawn) [V, reference compound], in assay [2], the Ki was found to be 0.003 nM and the Ratio a/b turned out to be 2500. For the same compound, the Ki in assay [3] (setting [8]) came out at 7.5 nM.
